These results are taken from patent US10544075B2 (OREGON HEALTH & SCIENCE UNIVERSITY, priority 2016, dated 2020).

Data set [1] in a line: Single time-point drug distribution of parent drugs from amides in brain and serum. It is filed as in vivo, C57Bl/6 mice. The following applies: equimolar systemic dose of 3.05 μmol/kg, 1 hour, brain. As for the experimental part: Wild type male C57Bl/6 mice, aged 8-10 weeks, were housed in a climate-controlled room with a 12 hour light-dark cycle with ad libitum access to food and water. To compare the single time-point drug distribution of JD-20 with JD-20 generated from the amide MA-JD20, and JD-21 with JD-21 generated from the amide MA-JD-21, the concentrations of the parent drugs were analyzed in brain and serum of mice by administering a dose of 3.05 μmol/kg (three mice per dose) with JD-20, JD-21, MA-JD20 and MA-JD21 both intraperitoneally and orally. The compounds were dissolved in a mixture of 50:50 DMSO and 0.9% sodium chloride bacteriostatic solution. Oral gavage was performed with the use of plastic feeding tubes (20 ga×38 mm, Instech Laboratories Inc., PA, USA) connected to […] insulin syringes (Covidien LLC MA, USA). In both experiments, the mice were euthanized after 1 hour following drug administration.
The tissues were processed as follows: The brains were collected in previously weighed homogenizer tubes with 3 Gold Spec ⅛ chrome steel balls (Applied Industrial Technologies) and immediately frozen at −80° C. The blood samples were kept on ice for 30 mins and then spun down at 5400×G at 4° C. for 15 min. […]
The serum samples were warmed to room temperature. […] The serum samples thus prepared were submitted for LC-MS/MS analysis to quantify the amount of free JD-20 or JD-21. […]

Data set [2] can be described thus: 24 h time-course study after oral dose of MA-JD20. It counts as in vivo, mice. The note with it: oral MA-JD20, JD-20 measured. Here is the method: As a follow-up of the single time point study, a 24 h time course study through oral gavage was performed for the amides, MA-JD20 and MA-JD21, and the corresponding JD-20 or JD-21 concentrations were measured in brain and blood of mice. Pharmacokinetic time-course curves were generated from these analyses and area under the curve (AUC) values for brain and blood were obtained.
Following the single time point drug distribution evaluation, to further understand the pharmacokinetic properties of the amide, a 24 h time-course study was conducted by administering an oral dose of […] of MA-JD20 to mice. The JD-20 concentrations generated in brain and blood were analyzed and area under the curve (AUC) values for brain and serum were obtained (FIG. 7). The AUCbrain/AUCserum ratio for amide MA-JD-20 is observed to be 0.89. […] The results obtained from the single point drug distribution were confirmed by the AUC analyses.

In another data set the target is Human FAAH (Homo sapiens (Human), UniProt O00519). Briefly: FAAH activity in cell homogenate. It counts as biochemical. As for the experimental part:
COS-7 cells (ATCC CRL-1651) were cultured in Dulbecco's Modified Eagle's Medium supplemented with 10% FBS, penicillin ([…]), and streptomycin ([…]). Cells (800,000/well) were seeded into 6-well plates (Falcon 353046) and left to adhere overnight. Cells were transfected with pcDNA4-FAAH-FLAG with Lipofectamine 2000 (Invitrogen) according to the manufacturer's protocol. Mock transfection controls were done with transfection reagent and no DNA. Cells were washed 4-days post transfection with cold PBS and scraped into TE buffer (125 mM Tris, 1 mM EDTA, pH 9) and sonicated (10 sec, 60 Sonic Dismembrator, Fisher). Cell homogenates were stored at −80° C. and protein concentrations were determined by BCA (Pierce). Cell homogenates were diluted into TE buffer containing 0.1% fatty-acid free BSA (Alfa Aesar). Substrates were added as 50× stocks in DMSO into 50 μL aliquots of homogenate to a final concentration of 100 μM. Reactions were performed with homogenate protein at 31.25 μg/mL for 15 min at 37° C. Reactions were quenched with 100 μL acetonitrile and vortexed for 20 s. Samples were clarified by centrifuge (10,000 rpm, 15 min, 4° C.). The supernatant is diluted 50-fold into 2:1 MeCN:H2O containing 300 nM d11-arachindonic acid and 30 nM d6-sobetirome. Samples were centrifuged again (13,200 rpm, 15 min, 4° C.). Products were quantified by LC/MS-MS with standard curves generated from mock samples. Observed rates are expressed as nmol product per mg protein homogenate per min.
FAAH was overexpressed in COS-7 cells as described above and cell homogenate was used to measure observed rates of substrate cleavage compared with the classic endogenous FAAH substrate anandamide (AEA). Substrate were all tested at 100 μM. Compared to AEA, the thyromimetic amides MA-GC 1 (9-fold), MA-JD20 (31-fold), and MA-JD21 (20-fold) show decreased rates. […] Observed rates are expressed as nmol product per mg homogenate protein per min.

Human FAAH, sequence (O00519 whole entry): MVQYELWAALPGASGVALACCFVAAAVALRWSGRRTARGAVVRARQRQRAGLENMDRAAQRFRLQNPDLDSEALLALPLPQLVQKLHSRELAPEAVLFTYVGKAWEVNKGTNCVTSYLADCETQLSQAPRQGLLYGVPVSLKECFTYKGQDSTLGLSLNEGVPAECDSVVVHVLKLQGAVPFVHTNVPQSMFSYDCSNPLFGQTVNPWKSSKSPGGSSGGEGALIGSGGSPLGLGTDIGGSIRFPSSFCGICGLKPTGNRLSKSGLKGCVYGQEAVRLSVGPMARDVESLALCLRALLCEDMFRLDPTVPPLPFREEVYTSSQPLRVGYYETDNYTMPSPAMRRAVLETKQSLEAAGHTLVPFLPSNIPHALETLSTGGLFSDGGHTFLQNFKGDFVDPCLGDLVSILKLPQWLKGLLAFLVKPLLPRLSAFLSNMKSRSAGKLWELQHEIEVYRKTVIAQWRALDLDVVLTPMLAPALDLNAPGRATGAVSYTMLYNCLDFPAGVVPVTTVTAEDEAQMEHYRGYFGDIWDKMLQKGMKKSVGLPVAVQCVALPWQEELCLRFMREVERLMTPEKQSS

As to `CNC(=O)COc1cc(Br)c(Cc2ccc(O)c(C(C)C)c2)c(Br)c1` [MA-JD20, 2-(3,5-dibromo-4-(4-hydroxy-3-isopropylbenzyl)phenoxy)-N-methylacetamide], the “parent drug delivered to the CNS compared to unmodified JD-20 or JD-21” value in data set [1] is listed as “delivers more of the parent drugs to the CNS”. Also, in data set [2], the “Cmax and Tmax time in the brain tissue” value was “around 2 h”. Further, at Human FAAH (100 μM, COS-7 cell homogenate), the FAAH substrate result is recorded as “substrates for fatty-acid amide hydrolase (FAAH)”. Further, the “decreased observed rate of substrate cleavage compared to AEA” value at Human FAAH (substrate 100 μM, FAAH overexpressed in COS-7 cell homogenate) is reported as 31 fold.
